Experimental data reported in the CheMixHub viscosity set.

Test: xn = mol fraction of the nth substance listed
Details: 101.3 kPa

c1ccc2ncccc2c1 + Cc1cccc(O)c1
viscosity [mPa·s]
Details	x1 = 0.0998	x1 = 0.198	x1 = 0.3012	x1 = 0.3984	x1 = 0.4984	x1 = 0.5985	x1 = 0.6965	x1 = 0.798	x1 = 0.8948
298 K	15.26	19.93	25.3	22.87	15.79	11.02	7.376	5.594	4.358
303 K	11.51	15.03	19.24	17.85	12.71	8.925	6.266	4.872	3.761
308 K	8.895	11.46	15.1	14.05	9.986	7.269	5.301	4.223	3.291
313 K	6.912	8.917	11.94	11.42	8.111	6.172	4.512	3.686	2.959
318 K	5.586	7.128	9.595	9.188	6.608	5.184	3.835	3.204	2.62
